# According to the kinase profiling compilation of Christmann-Franck et al. (2016):
# What was measured:
# Experiment in all cases: KINOMEscan competition binding
# Details in all cases: compound 10.0 µM
# [1] = molecular target: TIE1 (human) (UniProt P35590)
# [2] = molecular target: PRKCD (human) (UniProt Q05655)
# [3] = molecular target: PRKCQ (human) (UniProt Q04759)
# [4] = molecular target: PRKACB (human) (UniProt P22694)
# [5] = molecular target: STK25 (human) (UniProt O00506)
# [6] = molecular target: OXSR1 (human) (UniProt O95747)
# [7] = molecular target: CDKL5 (human) (UniProt O76039)
# [8] = molecular target: CSK (human) (UniProt P41240)
# [9] = molecular target: IGF1R (human) (UniProt P08069)
# [10] = molecular target: MAP2K1 (human) (UniProt Q02750)
# [11] = molecular target: FYN (human) (UniProt P06241)
# [12] = molecular target: SRPK1 (human) (UniProt Q96SB4)
# [13] = molecular target: EPHA3 (human) (UniProt P29320)
# [14] = molecular target: CDK16 (human) (UniProt Q00536)
# [15] = molecular target: MAP4K3 (human) (UniProt Q8IVH8)
# [16] = molecular target: STK32C (human) (UniProt Q86UX6)
# [17] = molecular target: ACVR1B (human) (UniProt P36896)
# [18] = molecular target: BMPR2 (human) (UniProt Q13873)
# [19] = molecular target: PIP5K1A (human) (UniProt Q99755)
# [20] = molecular target: CDC42BPB (human) (UniProt Q9Y5S2)
# [21] = molecular target: WEE2 (human) (UniProt P0C1S8)
# [22] = molecular target: PAK3 (human) (UniProt O75914)
# [23] = molecular target: MARK4 (human) (UniProt Q96L34)
# [24] = molecular target: CLK2 (human) (UniProt P49760)
# [25] = molecular target: MAPK15 (human) (UniProt Q8TD08)
# [26] = molecular target: TYRO3 (human) (UniProt Q06418)
# [27] = molecular target: STK36 (human) (UniProt Q9NRP7)
# [28] = molecular target: MAP4K1 (human) (UniProt Q92918)
# [29] = molecular target: MAPKAPK2 (human) (UniProt P49137)
# [30] = molecular target: HIPK1 (human) (UniProt Q86Z02)
# [31] = molecular target: PIK3C2B (human) (UniProt O00750)
# [32] = molecular target: FGR (human) (UniProt P09769)
# [33] = molecular target: MAP3K13 (human) (UniProt O43283)
# [34] = molecular target: PTK2 (human) (UniProt Q05397)
# [35] = molecular target: RPS6KA1 KD2 (human) (UniProt Q15418)
# [36] = molecular target: CDK4 CCND1 (human) (UniProt P11802+P24385)
# [37] = molecular target: TRPM6 (human) (UniProt Q9BX84)
# [38] = molecular target: IRAK4 (human) (UniProt Q9NWZ3)
# [39] = molecular target: TAOK2 (human) (UniProt Q9UL54)
# Chain of FGR (human) (P09769 whole entry, looked up): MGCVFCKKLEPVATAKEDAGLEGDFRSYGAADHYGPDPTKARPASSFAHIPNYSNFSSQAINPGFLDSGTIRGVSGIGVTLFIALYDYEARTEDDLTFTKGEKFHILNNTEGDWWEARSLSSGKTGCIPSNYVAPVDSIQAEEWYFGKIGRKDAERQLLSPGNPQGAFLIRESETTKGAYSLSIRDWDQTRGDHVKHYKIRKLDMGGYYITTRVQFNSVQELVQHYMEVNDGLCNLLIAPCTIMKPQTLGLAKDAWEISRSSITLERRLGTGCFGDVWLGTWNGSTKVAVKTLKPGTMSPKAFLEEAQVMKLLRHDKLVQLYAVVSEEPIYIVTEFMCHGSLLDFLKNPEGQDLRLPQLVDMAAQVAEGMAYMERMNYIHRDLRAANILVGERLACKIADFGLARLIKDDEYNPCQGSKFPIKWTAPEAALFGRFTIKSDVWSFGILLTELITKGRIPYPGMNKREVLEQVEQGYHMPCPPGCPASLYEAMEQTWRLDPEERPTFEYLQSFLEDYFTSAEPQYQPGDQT
# Chain of CDK16 (human) (Q00536 whole entry, looked up): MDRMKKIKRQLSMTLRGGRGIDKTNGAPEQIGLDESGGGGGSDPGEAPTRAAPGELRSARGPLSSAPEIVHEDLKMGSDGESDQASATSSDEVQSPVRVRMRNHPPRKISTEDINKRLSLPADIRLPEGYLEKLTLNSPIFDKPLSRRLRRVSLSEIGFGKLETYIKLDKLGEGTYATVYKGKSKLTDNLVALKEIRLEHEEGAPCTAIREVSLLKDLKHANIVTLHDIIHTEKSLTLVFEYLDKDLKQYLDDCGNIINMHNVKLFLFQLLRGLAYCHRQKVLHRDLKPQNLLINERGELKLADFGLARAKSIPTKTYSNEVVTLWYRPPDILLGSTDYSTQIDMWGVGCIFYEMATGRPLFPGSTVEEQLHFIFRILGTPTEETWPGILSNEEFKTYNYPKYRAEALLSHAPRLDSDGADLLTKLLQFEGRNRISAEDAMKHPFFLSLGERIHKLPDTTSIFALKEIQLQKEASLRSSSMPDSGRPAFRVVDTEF
# Chain of MAPKAPK2 (human) (P49137 whole entry, looked up): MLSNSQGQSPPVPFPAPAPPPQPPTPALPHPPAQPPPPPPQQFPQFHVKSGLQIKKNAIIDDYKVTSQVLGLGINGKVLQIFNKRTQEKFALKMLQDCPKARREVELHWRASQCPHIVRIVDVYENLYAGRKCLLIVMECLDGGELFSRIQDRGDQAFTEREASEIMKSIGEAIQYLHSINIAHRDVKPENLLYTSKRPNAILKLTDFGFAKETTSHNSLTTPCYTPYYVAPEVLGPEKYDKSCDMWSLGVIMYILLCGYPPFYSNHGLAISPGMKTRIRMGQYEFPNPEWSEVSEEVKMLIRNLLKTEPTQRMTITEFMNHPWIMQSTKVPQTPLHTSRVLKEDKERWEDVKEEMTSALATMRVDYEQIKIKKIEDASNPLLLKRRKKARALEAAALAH
# Chain of SRPK1 (human) (Q96SB4 whole entry, looked up): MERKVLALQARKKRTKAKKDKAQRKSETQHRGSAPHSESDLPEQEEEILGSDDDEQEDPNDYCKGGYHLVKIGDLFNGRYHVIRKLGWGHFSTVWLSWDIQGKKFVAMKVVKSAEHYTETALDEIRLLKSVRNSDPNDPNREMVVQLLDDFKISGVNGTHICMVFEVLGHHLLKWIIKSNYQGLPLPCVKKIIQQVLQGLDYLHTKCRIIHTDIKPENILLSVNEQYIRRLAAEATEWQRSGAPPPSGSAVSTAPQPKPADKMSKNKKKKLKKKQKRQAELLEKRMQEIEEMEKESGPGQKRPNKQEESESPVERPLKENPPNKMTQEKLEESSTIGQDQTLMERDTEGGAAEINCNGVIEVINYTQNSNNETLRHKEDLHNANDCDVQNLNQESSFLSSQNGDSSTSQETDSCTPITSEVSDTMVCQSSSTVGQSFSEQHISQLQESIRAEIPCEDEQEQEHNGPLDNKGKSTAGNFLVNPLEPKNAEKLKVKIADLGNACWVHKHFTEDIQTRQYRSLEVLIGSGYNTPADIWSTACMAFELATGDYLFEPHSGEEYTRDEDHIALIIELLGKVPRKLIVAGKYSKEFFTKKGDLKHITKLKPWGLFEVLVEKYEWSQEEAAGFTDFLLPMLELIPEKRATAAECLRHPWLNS
# Chain of STK36 (human) (Q9NRP7 whole entry, looked up): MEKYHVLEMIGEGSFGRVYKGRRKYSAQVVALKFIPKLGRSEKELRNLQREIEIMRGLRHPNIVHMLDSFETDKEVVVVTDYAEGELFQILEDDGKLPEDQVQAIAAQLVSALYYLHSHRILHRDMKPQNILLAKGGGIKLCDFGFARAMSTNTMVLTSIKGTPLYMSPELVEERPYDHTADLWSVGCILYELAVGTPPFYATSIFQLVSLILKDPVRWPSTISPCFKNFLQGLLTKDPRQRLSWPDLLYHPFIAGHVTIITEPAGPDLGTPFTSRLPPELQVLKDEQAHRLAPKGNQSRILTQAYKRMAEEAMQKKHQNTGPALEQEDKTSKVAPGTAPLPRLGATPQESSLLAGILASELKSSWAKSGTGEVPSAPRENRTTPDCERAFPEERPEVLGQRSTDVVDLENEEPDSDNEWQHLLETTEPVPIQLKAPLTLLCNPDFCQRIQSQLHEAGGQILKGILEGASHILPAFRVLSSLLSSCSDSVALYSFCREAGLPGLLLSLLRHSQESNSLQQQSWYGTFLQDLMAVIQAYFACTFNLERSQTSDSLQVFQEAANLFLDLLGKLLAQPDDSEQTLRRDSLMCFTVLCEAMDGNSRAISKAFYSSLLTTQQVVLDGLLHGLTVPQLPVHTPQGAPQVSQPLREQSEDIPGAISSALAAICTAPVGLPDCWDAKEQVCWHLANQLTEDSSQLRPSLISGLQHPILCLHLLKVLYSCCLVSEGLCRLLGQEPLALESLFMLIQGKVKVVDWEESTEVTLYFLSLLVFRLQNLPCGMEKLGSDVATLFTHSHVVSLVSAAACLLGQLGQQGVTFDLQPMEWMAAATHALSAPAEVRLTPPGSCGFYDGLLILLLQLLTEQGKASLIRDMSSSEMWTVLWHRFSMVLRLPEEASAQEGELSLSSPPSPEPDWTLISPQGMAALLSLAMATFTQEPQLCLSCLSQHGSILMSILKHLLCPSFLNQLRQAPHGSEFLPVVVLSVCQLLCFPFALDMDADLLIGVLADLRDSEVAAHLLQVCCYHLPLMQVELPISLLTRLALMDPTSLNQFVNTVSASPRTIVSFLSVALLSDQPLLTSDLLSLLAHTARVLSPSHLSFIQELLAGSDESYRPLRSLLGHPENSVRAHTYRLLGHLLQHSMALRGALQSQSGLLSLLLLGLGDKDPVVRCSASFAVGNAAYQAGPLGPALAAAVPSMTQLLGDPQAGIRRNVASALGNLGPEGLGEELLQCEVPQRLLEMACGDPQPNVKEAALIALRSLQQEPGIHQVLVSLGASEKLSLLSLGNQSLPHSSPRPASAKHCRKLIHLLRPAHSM
# Chain of TYRO3 (human) (Q06418 whole entry, looked up): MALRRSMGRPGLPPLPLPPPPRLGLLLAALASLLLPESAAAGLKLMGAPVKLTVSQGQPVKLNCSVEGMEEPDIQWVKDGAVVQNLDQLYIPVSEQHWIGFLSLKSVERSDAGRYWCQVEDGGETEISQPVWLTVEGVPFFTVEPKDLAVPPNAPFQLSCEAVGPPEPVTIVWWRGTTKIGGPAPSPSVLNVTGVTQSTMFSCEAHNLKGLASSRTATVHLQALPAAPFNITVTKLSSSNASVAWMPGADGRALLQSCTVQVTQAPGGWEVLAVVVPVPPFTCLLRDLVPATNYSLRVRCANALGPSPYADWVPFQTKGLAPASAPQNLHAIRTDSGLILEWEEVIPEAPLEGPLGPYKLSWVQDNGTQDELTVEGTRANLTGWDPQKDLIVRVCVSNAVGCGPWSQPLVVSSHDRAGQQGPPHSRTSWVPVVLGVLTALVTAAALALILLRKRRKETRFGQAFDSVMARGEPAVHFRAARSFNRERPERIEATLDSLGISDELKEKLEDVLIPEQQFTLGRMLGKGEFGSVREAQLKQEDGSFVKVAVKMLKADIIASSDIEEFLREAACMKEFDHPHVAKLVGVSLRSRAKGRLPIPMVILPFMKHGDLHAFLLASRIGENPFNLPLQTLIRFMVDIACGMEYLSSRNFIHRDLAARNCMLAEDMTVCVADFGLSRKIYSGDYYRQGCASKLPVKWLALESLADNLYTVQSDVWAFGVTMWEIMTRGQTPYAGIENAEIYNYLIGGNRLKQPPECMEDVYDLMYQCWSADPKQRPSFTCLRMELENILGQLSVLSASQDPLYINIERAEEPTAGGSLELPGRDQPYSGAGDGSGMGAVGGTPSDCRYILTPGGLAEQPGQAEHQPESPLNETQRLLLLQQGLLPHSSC
# Chain of PAK3 (human) (O75914 whole entry, looked up): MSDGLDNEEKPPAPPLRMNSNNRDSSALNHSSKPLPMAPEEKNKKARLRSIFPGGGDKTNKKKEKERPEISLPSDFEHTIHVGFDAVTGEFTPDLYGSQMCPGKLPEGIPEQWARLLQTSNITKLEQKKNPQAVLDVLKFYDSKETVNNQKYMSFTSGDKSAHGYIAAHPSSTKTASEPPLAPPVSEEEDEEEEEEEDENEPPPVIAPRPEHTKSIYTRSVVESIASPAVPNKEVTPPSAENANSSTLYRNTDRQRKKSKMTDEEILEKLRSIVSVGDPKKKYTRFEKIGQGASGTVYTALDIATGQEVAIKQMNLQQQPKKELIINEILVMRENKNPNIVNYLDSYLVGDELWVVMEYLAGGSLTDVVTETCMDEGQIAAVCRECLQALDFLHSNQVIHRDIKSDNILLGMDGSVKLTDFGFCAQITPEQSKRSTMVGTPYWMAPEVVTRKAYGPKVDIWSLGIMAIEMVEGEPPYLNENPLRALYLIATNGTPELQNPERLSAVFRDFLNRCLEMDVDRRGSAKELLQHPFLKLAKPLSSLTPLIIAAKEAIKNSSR
Structure (SMILES),"kinase still bound, per cent of control [1] [%]","kinase still bound, per cent of control [2] [%]","kinase still bound, per cent of control [3] [%]","kinase still bound, per cent of control [4] [%]","kinase still bound, per cent of control [5] [%]","kinase still bound, per cent of control [6] [%]","kinase still bound, per cent of control [7] [%]","kinase still bound, per cent of control [8] [%]","kinase still bound, per cent of control [9] [%]","kinase still bound, per cent of control [10] [%]","kinase still bound, per cent of control [11] [%]","kinase still bound, per cent of control [12] [%]","kinase still bound, per cent of control [13] [%]","kinase still bound, per cent of control [14] [%]","kinase still bound, per cent of control [15] [%]","kinase still bound, per cent of control [16] [%]","kinase still bound, per cent of control [17] [%]","kinase still bound, per cent of control [18] [%]","kinase still bound, per cent of control [19] [%]","kinase still bound, per cent of control [20] [%]",also measured
Cc1cn(-c2cc(C(=O)Nc3ccc(C)c(NC(=O)c4ccno4)c3)cc(C(F)(F)F)c2)cn1,100,100,100,100,100,100,100,29,100,100,9.6,100,9.5,100,100,100,100,100,100,100,"kinase still bound, per cent of control [21]: 100%; kinase still bound, per cent of control [22]: 100%; kinase still bound, per cent of control [23]: 100%; kinase still bound, per cent of control [24]: 100%; kinase still bound, per cent of control [25]: 100%; kinase still bound, per cent of control [26]: 100%; kinase still bound, per cent of control [27]: 100%; kinase still bound, per cent of control [28]: 100%; kinase still bound, per cent of control [29]: 100%; kinase still bound, per cent of control [30]: 100%; kinase still bound, per cent of control [31]: 100%; kinase still bound, per cent of control [32]: 23%; kinase still bound, per cent of control [33]: 100%; kinase still bound, per cent of control [34]: 100%; kinase still bound, per cent of control [35]: 100%"
CCOc1cc(N2CCC(O)CC2)ccc1Nc1ncc2c(n1)N(C)c1ccccc1C(=O)N2C,100,100,100,100,100,100,100,100,100,100,100,100,100,100,100,100,100,100,100,100,"kinase still bound, per cent of control [21]: 100%; kinase still bound, per cent of control [22]: 100%; kinase still bound, per cent of control [23]: 100%; kinase still bound, per cent of control [24]: 100%; kinase still bound, per cent of control [25]: 100%; kinase still bound, per cent of control [26]: 100%; kinase still bound, per cent of control [27]: 100%; kinase still bound, per cent of control [28]: 100%; kinase still bound, per cent of control [29]: 100%; kinase still bound, per cent of control [30]: 100%; kinase still bound, per cent of control [31]: 100%; kinase still bound, per cent of control [32]: 100%; kinase still bound, per cent of control [33]: 100%; kinase still bound, per cent of control [34]: 100%; kinase still bound, per cent of control [35]: 28%"
CCc1nc(-c2cccc(C)c2)c(-c2ccnc(NC(=O)c3ccccc3)c2)s1,96,50,100,95,84,100,100,88,100,86,45,100,69,100,80,35,4.6,90,100,63,"kinase still bound, per cent of control [21]: 100%; kinase still bound, per cent of control [22]: 82%; kinase still bound, per cent of control [23]: 100%; kinase still bound, per cent of control [24]: 61%; kinase still bound, per cent of control [36]: 84%; kinase still bound, per cent of control [25]: 100%; kinase still bound, per cent of control [26]: 83%; kinase still bound, per cent of control [37]: 100%; kinase still bound, per cent of control [38]: 100%; kinase still bound, per cent of control [27]: 4.8%; kinase still bound, per cent of control [28]: 86%; kinase still bound, per cent of control [29]: 100%; kinase still bound, per cent of control [30]: 94%; kinase still bound, per cent of control [39]: 86%; kinase still bound, per cent of control [31]: 100%; kinase still bound, per cent of control [32]: 52%; kinase still bound, per cent of control [33]: 100%; kinase still bound, per cent of control [34]: 96%; kinase still bound, per cent of control [35]: 28%"
